# Laboratory results taken from BindingDB's records for doi:10.1016/j.bmcl.2007.01.009 (Karo Bio, 2007).
# Target: T1, Thyroid hormone receptor alpha (Homo sapiens, UniProt P10827)
# T1 sequence (P10827 whole entry): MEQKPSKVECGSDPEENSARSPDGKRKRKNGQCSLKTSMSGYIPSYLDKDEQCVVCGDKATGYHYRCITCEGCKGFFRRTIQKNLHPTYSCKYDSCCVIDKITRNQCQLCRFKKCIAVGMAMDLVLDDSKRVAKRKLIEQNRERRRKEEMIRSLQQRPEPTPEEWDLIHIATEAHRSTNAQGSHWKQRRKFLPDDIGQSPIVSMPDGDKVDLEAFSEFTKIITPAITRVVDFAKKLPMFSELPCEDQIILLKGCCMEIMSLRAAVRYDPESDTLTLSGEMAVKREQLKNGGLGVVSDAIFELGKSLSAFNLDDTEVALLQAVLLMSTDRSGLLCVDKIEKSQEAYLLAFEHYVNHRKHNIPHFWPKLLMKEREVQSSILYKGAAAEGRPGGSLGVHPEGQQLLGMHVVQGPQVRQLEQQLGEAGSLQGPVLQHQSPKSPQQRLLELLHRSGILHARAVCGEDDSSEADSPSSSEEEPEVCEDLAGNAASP
# Experiment: TRalpha-Binding Assay and Thyroid Response Element (TRAFalpha1) Reporter Assay.
# Conditions: pH 7; 4 °C
# Excerpt: EC50 is the concentration of compound required to reach or inhibit (agonist or antagonist) 50% of T3-induced TRalpha-activation in CHOK1 cells stably transfected with hTRalpha using alkaline phosphatase reporter assay.
smiles,measurement,value
"O=C(O)CCc1cc(Br)c(OCc2cccc(Br)c2)c(Br)c1 [3-{3,5-dibromo-4-[(3-bromophenyl)methoxy]phenyl}propanoic acid]",EC50,380 nM
